Assay results taken from US11154067B2, “Membrane and method for preservation of produce” (Agricultural Research Council, priority 2015, dated 2021).

Columns and labels:
Format in all cases: in vivo
Details in all cases: controlled atmosphere 28 days followed by 7 days at 20° C.
[1] = system: Neofabraea alba; assay: Postharvest dip trials of apples against Neofabraea alba
[2] = system: Penicillium expansum; assay: Postharvest dip trials of apples against Penicillium expansum
[3] = system: Botrytis cinerea; assay: Postharvest dip trials of apples against Botrytis cinerea

CCO [Ethanol]
antimicrobial efficacy indicated as percentage value ([1]; 'Golden Delicious' apples): 10.41% | antimicrobial efficacy indicated as percentage value ([1]; 'Granny Smith' apples): 21.87% | antimicrobial efficacy indicated as percentage value ([1]; 'Pink Lady' apples): 19.25% | antimicrobial efficacy indicated as percentage value ([2]; 'Golden Delicious' apples): 18.07% | antimicrobial efficacy indicated as percentage value ([2]; 'Granny Smith' apples): 18.75% | antimicrobial efficacy indicated as percentage value ([2]; 'Pink Lady' apples): 0.16% | antimicrobial efficacy indicated as percentage value ([3]; 'Golden Delicious' apples): 13.98% | antimicrobial efficacy indicated as percentage value ([3]; 'Granny Smith' apples): 16.53% | antimicrobial efficacy indicated as percentage value ([3]; 'Pink Lady' apples): 2.88%
